Values after ≈ are worked out from the molar mass of the structure shown.
What was measured:
SW480 cells [1] = experiment: Western blot analysis of cell cycle regulatory and apoptosis signal proteins; type: cell-based, human
Experimental: Lysates, cytosolic and nuclear extracts of whole cells were obtained. SDS-PAGE and western blot analysis were performed as described in published documents 1 and 2 [1, 2]. Put briefly, the cells of 5×10^5 cells/well were inoculated in 6-well plates and cultured for 24 hours. Cells were then treated with MMPP or DMSO for 24 hours. The treated cells were washed twice with PBS and lysed. Proteins from the lysed cells were separated on 10 to 15% SDS-PAGE. Proteins were transferred to a PVDF membrane and the PVDF membrane was blocked with TBS/T-buffer including 5% defatted milk for 2.5 hours at room temperature. The membrane to which the proteins are transferred was analyzed by using a mouse monoclonal antibody for as a primary antibody. Protein expression was visualized using a chemiluminescence reagent (Amersham Pharmacia Biotech, Inc., Buckinghamshire, UK) and measured using a in which a CCD camera (Fusion-FX, Fisher BioTech, Ltd., Wembley, Australia) is installed.
2. Effect of MMPP on Cell Cycle Regulatory Signal and Apoptosis Signal In order to investigate the basic mechanism of the growth inhibitory effect of colon cancer cells of MMPP, it was examined whether MMPP treatment affects cell cycle regulation and apoptosis signals in SW480 cells.

SW480 xenografted mouse = experiment: Anticancer activity in a colon cancer xenograft animal model; type: in vivo; conditions: twice a week for 3 weeks, nude mice
SW480 cells [2] = experiment: Cell viability analysis using MTT assay; type: cell-based, human
Experimental: The human colon cancer cell line, SW480, was purchased from the American Type Culture Collection (Manassas, Va., USA) and cultured in an RPMI (Roswell Park Memorial Institute)-1640 medium (Gibco-BRL) to which 10% heat-inactivated fetal bovine serum (FBS) and penicillin/streptomycin at 37° C. humidified atmosphere of 5% CO2. The cells were cultured in a 100 mm culture dish at a concentration of 4×10^5 cells for experiments.
The influence of 2-methoxy-4-(3-(4-methoxyphenyl)prop-1-en-1-yl)phenol (MMPP) on the viability of cells was confirmed by colorimetric and metabolic activity assay using MTT [3-(4,5-dimethylthiazol-2-yl)-2,5-diphenyltetrazolium bromide]. Put briefly, cells were inoculated on 96-well plates at 1×10^4 cells/well and cultured for 24 hours. Cells were treated with 2.5 to 10 μg/ml MMPP or DMSO (dimethyl sulfoxide), a solvent for MMPP. After culturing for 24 hours, the medium including MMPP was removed and replaced with 100 μl of fresh medium. After culturing for 1.5 hours, medium including MTT was removed and 200 μl DMSO was added to each well. The plate was then agitated at a weak intensity until the color reaction of the plate became uniform. Colorimetric evaluation was performed using a microplate reader at 540 nm.
The inhibitory effect of MMPP on the growth of human colon cancer cells was examined using SW480 cells.

STAT3 = biological target: T1, STAT3 (Homo sapiens, UniProt P40763); experiment: DNA binding activity of STAT3 using EMSA; type: cell-based; conditions: SW480 cells exposed for 1 hour
T1 construct: endogenous in cells; host or cells: SW480 cells (nuclear extract)
T1 sequence (P40763 whole entry): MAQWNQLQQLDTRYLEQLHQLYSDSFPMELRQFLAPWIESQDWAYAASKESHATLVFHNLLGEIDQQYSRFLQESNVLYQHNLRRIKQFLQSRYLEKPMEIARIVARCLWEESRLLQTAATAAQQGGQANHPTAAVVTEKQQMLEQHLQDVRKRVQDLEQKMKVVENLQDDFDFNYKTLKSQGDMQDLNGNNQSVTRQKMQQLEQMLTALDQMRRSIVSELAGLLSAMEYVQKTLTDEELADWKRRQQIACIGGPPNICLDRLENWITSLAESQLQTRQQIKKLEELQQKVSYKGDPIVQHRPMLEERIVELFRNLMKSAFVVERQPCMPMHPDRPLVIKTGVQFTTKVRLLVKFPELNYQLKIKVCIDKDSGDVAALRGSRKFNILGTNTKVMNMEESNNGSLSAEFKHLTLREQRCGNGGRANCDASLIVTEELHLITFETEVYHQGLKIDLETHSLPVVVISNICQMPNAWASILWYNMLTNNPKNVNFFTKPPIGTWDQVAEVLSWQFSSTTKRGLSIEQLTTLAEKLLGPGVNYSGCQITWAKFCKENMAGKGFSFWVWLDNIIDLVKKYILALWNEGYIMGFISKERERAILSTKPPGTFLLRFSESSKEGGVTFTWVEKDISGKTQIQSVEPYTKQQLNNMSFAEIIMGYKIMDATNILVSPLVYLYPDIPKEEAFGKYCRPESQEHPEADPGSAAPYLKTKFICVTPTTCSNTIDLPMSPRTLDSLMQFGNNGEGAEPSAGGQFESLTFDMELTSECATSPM
Experimental: The DNA binding activity of STAT3 was measured using an electrophoretic mobility shift assay (EMSA) as described in document 1. Put briefly, cells were cultured in a 100 mm culture dish at 37° C. for 24 hours and then treated with MMPP or DMSO. After incubation for 24 hours, the cells were washed three times with cold PBS and nuclear extracts for EMSA experiments were prepared. Relative thickness of the DNA-protein binding band was quantified using Lab Works 4.0 software (UVP Inc., Upland, Calif., USA) after scanning with densitometry.
In order to determine whether MMPP reacted with STAT3 to inhibit DNA binding activity of STAT3, MMPP was exposed to SW480 cells for 1 hour and the DNA binding activity of STAT3 was measured.

IC50 (SW480 cells [2]; Homo sapiens, MMPP 2.5 to 10 μg/ml, treated for 24 hours, MTT, read-out: IC50 value, inhibition of the growth of SW480 cells): 5.9 µg/mL (≈ 21.8 µM)
SMILES: COc1ccc(C/C=C/c2ccc(O)c(OC)c2)cc1 [MMPP, 2-methoxy-4-(3-(4-methoxyphenyl)propyl-1-en-1-yl)phenol]
expression of cell cycle regulatory signal proteins (SW480 cells [1]): effectively reduced the expression
expression of pro-apoptotic proteins cleaved caspase-3, cleaved caspase-8 and Bax (SW480 cells [1]): increased the expression
expression of the anti-apoptotic protein Bcl-2 (SW480 cells [1]): reduced the expression
Tumor volume compared to the control group (SW480 xenografted mouse; 2.5 mg/kg intraperitoneal): 65%
Tumor volume compared to the control group (SW480 xenografted mouse; 5 mg/kg intraperitoneal): 35%
cell density compared to the control group (SW480 cells [2]): significantly reduced cell density
DNA binding activity of STAT3 (STAT3): effectively inhibited DNA binding activity of STAT3

Source: patent publication US10166203B2, “Pharmaceutical composition for treating cancer including 2-methoxy-4-(3-(4-methoxyphenyl)prop-1-en-1-yl)phenol as active ingredient” (CHUNGBUK NATIONAL UNIVERSITY INDUSTRY-ACADEMIC COOPERATION …, priority 2015, dated 2019)
